Experiment [1] has as its system Heterakis spumosa. Briefly: Example D: in vivo nematode test, Heterakis spumosa in mice. As to conditions: oral. As for the experimental part:
Heterakis spumosa in Mice
Mice were experimentally infected with nematodes of the species Heterakis spumosa. Specifically, the mice were administered Heterakis spumosa orally as 90 embryonate eggs.
After the prepatency period had expired, the suspended active compounds of Example 2 were administered orally on day 46 after the infection.
(§1) Determination of the Activity:
The mice are selected on day 54 after the infection. The adult parasites are counted in the colon and caecum using a microscope. The success of treatment in the dose group is compared to the untreated control group.

Experiment [2] has as its system Nematospiroides dubius. Briefly: Use Example C: in vivo nematode test, Nematospiroides dubius in mice. As to conditions: oral. As for the experimental part:
Nematospiroides dubius in Mice
Mice were experimentally infected with nematodes of the species Nematospiroides dubius. Specifically, the mice were administered Nematospiroides dubius orally as 60 filariform larvae.
After the prepatency period had expired, the suspended active compounds of Example 2 were administered orally on day 12 after the infection.
as §1
The mice are selected on day 20 after the infection. The adult parasites in the Duodenum are counted by means of a compressorium. The success of treatment in the dose group is compared to the untreated control group.

The mark [3] stands for this setting: ivermectin B1a/B1b 0.1 mg/kg alone.

As for “22,23-Dihydroavermectin B1a/B1b [Ivermectin B1a/B1b]”, the “Reduction rate [%]” value is on record as less than 50% in experiment [1] (setting [3]) and 0% in experiment [2] (setting [3]).
For the molecule `O=[N+]([O-])NC1=NCCN1Cc1ccc(Cl)nc1` [Imidacloprid, 1-[(6-chloro-3-pyridinyl)methyl]-N-nitro-2-imidazolidinium], the “Reduction rate [%]” value in experiment [1] (imidacloprid 5.0 mg/kg alone), in experiment [1] (imidacloprid 10.0 mg/kg alone), in experiment [1] (imidacloprid 25.0 mg/kg alone), in experiment [1] (imidacloprid 50.0 mg/kg alone), in experiment [2] (imidacloprid 25.0 mg/kg alone) and in experiment [2] (imidacloprid 50.0 mg/kg alone) was 0% throughout.

Values taken from patent publication US20040014689A1, “Endoparaciticidal and ectoparasiticidal agents” (priority 1996, published 2004).
